Data on twelve compounds can be found in ChEMBL document CHEMBL3632486, “Interaction of carbonic anhydrase isozymes I, II, and IX with some pyridine and phenol hydrazinecarbothioamide derivatives” (Bioorg Med Chem Lett, 2015).

For test [1], the target named is T1, Carbonic anhydrase 9 (Homo sapiens, UniProt Q16790).
Description: Inhibition of human carbonic anhydrase 9 incubated for 15 mins prior to testing by stopped flow CO2 hydration assay
The target of another test is Carbonic anhydrase 1 (Homo sapiens, UniProt P00915). Briefly: Inhibition of human carbonic anhydrase 1 incubated for 15 mins prior to testing by stopped flow CO2 hydration assay.
Sequence of Carbonic anhydrase 1 (P00915 whole entry): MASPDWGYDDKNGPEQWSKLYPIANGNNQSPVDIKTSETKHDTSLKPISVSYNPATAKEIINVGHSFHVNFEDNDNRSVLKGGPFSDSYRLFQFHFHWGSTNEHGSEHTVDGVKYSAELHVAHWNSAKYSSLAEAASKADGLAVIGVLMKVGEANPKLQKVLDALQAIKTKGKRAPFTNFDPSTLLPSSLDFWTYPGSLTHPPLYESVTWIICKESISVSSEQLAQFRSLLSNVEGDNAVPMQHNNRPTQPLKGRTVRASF
In test [2] the target is T1, Carbonic anhydrase 9. Briefly: Activation of human carbonic anhydrase 9 incubated for 15 mins prior to testing by stopped flow CO2 hydration assay.
In a further test the target is Carbonic anhydrase 2 (Homo sapiens, UniProt P00918). Put plainly: Inhibition of human carbonic anhydrase 2 incubated for 15 mins prior to testing by stopped flow CO2 hydration assay.

What is called Ki is the dissociation constant of the complex between target and ligand, obtained from inhibition or displacement. Read a low Ki as higher affinity.

`CCN=C(S)NNC(=O)c1ccncc1`: the Ki at Carbonic anhydrase 9 [1] is 884 nM; at Carbonic anhydrase 1, 96.9 nM. This compound yielded an Activity at Carbonic anhydrase 9 [2] of 12.5 µM.
As for `C=CCNC(=S)NNC(=O)c1ccccc1O`, the Ki at Carbonic anhydrase 2 was more than 10000 nM; at Carbonic anhydrase 9 [1] it was 760 nM.
Consider `O=C(NNC(=S)Nc1ccccc1)c1ccncc1`, for which the Ki came to 317 nM at Carbonic anhydrase 9 [1] and 34.1 nM at Carbonic anhydrase 1. Besides, at Carbonic anhydrase 9 [2], the Activity was found to be 1.42 µM.
For `O=C(NNC(=S)NCc1ccccc1)c1ccccc1O`, the inhibition constant (Ki) at Carbonic anhydrase 2 was more than 10000 nM; at Carbonic anhydrase 9 [1] it was 980 nM.
As to `O=C(NNC(=S)NCc1ccccc1)c1ccncc1`, the affinity at Carbonic anhydrase 9 [1], expressed as Ki, was 964 nM. The compound further returned an Activity on Carbonic anhydrase 9 [2] of 0.81 µM.
In the case of `NC(=S)NNC(=O)c1ccncc1`, the Activity on Carbonic anhydrase 9 [2] was determined as 3.61 µM.
Take `CCNC(=S)NNC(=O)c1ccccc1O`: the Ki on Carbonic anhydrase 2 was more than 10000 nM; at Carbonic anhydrase 9 [1] it was 878 nM.
Take `Cc1ccc(NC(=S)NNC(=O)c2ccncc2)cc1`: the Ki at Carbonic anhydrase 9 [1] was found to be 1120 nM. In addition, the Activity at Carbonic anhydrase 9 [2] stood at 2.57 µM.
`O=C(NNC(=S)Nc1ccccc1)c1ccccc1O`: the Ki was more than 10000 nM at Carbonic anhydrase 2 and 1220 nM at Carbonic anhydrase 9 [1].
For `C=CCNC(=S)NNC(=O)c1ccncc1`, the Ki on Carbonic anhydrase 9 [1] came out at 970 nM; on Carbonic anhydrase 1 it was 871 nM. At Carbonic anhydrase 9 [2], this compound displayed an Activity of 12.3 µM.
For `Cc1ccc(NC(=S)NNC(=O)c2ccccc2O)cc1`, at Carbonic anhydrase 2, the Ki is more than 10000 nM.
`NC(=S)NNC(=O)c1ccccc1O`: the figures for the Ki on Carbonic anhydrase 2 and at Carbonic anhydrase 9 [1] were more than 10000 nM and 1010 nM, respectively.
